# Measured values reported in article PMC4767141, “Discovery of Potent, Orally Bioavailable, Small-Molecule Inhibitors of WNT Signaling from a Cell-Based Pathway Screen” (Journal of Medicinal Chemistry, 2015).
# Values joined by “and” are separate entries in the source; they are usually repeats but may differ in a detail not shown here. Identical values can stand only once.
# Tests used:
# M2 (h) = molecular target: T1, M2 (h) (Homo sapiens, UniProt P08172); assay: CEREP binding panel; details: antagonist radioligand, read-out: % Inhibition of Control Specific Binding
# T1 construct: purchased Millipore KinaseProfiler (kinases); Cerep (receptors and ion channels)
# ULK3 = molecular target: T2, ULK3 (Homo sapiens, UniProt Q6PHR2); assay: Millipore kinase panel; type: biochemical; details: read-out: % Control
# T2 construct: purchased Millipore KinaseProfiler (kinases); Cerep (receptors and ion channels)
# SAPK4 = molecular target: T3, SAPK4 (Homo sapiens, UniProt O15264); assay: Millipore kinase panel; type: biochemical; details: read-out: % Control
# T3 construct: purchased Millipore KinaseProfiler (kinases); Cerep (receptors and ion channels)
# FYN = molecular target: T4, FYN (Homo sapiens, UniProt P06241); assay: Millipore kinase panel; type: biochemical; details: read-out: % Control
# T4 construct: purchased Millipore KinaseProfiler (kinases); Cerep (receptors and ion channels)
# CRAF = molecular target: T5, CRAF (Homo sapiens, UniProt P04049); assay: Millipore kinase panel; type: biochemical; details: read-out: % Control
# T5 construct: purchased Millipore KinaseProfiler (kinases); Cerep (receptors and ion channels)
# SKCa channel = assay: CEREP binding panel; details: 10 μM, antagonist radioligand
# PAK4 = molecular target: T6, PAK4 (Homo sapiens, UniProt O96013); assay: Millipore kinase panel; type: biochemical; details: read-out: % Control
# T6 construct: purchased Millipore KinaseProfiler (kinases); Cerep (receptors and ion channels)
# RSK1 = molecular target: T7, RSK1 (Homo sapiens, UniProt Q15418); assay: Millipore kinase panel; type: biochemical; details: read-out: % Control
# T7 construct: purchased Millipore KinaseProfiler (kinases); Cerep (receptors and ion channels)
# MELK = molecular target: T8, MELK (Homo sapiens, UniProt Q14680); assay: Millipore kinase panel; type: biochemical; details: read-out: % Control
# T8 construct: purchased Millipore KinaseProfiler (kinases); Cerep (receptors and ion channels)
# MSSK1 = molecular target: T9, MSSK1 (Homo sapiens, UniProt Q9UPE1); assay: Millipore kinase panel; type: biochemical; details: read-out: % Control
# T9 construct: purchased Millipore KinaseProfiler (kinases); Cerep (receptors and ion channels)
# DYRK2 = molecular target: T10, DYRK2 (Homo sapiens, UniProt Q92630); assay: Millipore kinase panel; type: biochemical; details: read-out: % Control
# T10 construct: purchased Millipore KinaseProfiler (kinases); Cerep (receptors and ion channels)
# M3 (h) = molecular target: T11, M3 (h) (Homo sapiens, UniProt P20309); assay: CEREP binding panel; details: antagonist radioligand, read-out: % Inhibition of Control Specific Binding
# T11 construct: purchased Millipore KinaseProfiler (kinases); Cerep (receptors and ion channels)
# CHK1 = molecular target: T12, CHK1 (Homo sapiens, UniProt O14757); assay: Millipore kinase panel; type: biochemical; details: read-out: % Control
# T12 construct: purchased Millipore KinaseProfiler (kinases); Cerep (receptors and ion channels)
# α1 (non-selective) = assay: CEREP binding panel; details: 10 μM, antagonist radioligand
# EPHA2 = molecular target: T13, EPHA2 (Homo sapiens, UniProt P29317); assay: Millipore kinase panel; type: biochemical; details: read-out: % Control
# T13 construct: purchased Millipore KinaseProfiler (kinases); Cerep (receptors and ion channels)
# JAK3 = molecular target: T14, JAK3 (Homo sapiens, UniProt P52333); assay: Millipore kinase panel; type: biochemical; details: read-out: % Control
# T14 construct: purchased Millipore KinaseProfiler (kinases); Cerep (receptors and ion channels)
# SIK = molecular target: T15, SIK (Homo sapiens, UniProt P57059); assay: Millipore kinase panel; type: biochemical; details: read-out: % Control
# T15 construct: purchased Millipore KinaseProfiler (kinases); Cerep (receptors and ion channels)
# EPHA5 = molecular target: T16, EPHA5 (Homo sapiens, UniProt P54756); assay: Millipore kinase panel; type: biochemical; details: read-out: % Control
# T16 construct: purchased Millipore KinaseProfiler (kinases); Cerep (receptors and ion channels)
# B2 (h) = molecular target: T17, B2 (h) (Homo sapiens, UniProt P30411); assay: CEREP binding panel; details: agonist radioligand, read-out: % Inhibition of Control Specific Binding
# T17 construct: purchased Millipore KinaseProfiler (kinases); Cerep (receptors and ion channels)
# CSK = molecular target: T18, CSK (Homo sapiens, UniProt P41240); assay: Millipore kinase panel; type: biochemical; details: read-out: % Control
# T18 construct: purchased Millipore KinaseProfiler (kinases); Cerep (receptors and ion channels)
# CDK9/CYCLINT1 = molecular target: T19, CDK9/CYCLINT1 (Homo sapiens, UniProt P50750); assay: Millipore kinase panel; type: biochemical; details: read-out: % Control
# T19 construct: purchased Millipore KinaseProfiler (kinases); Cerep (receptors and ion channels)
# BLK = assay: Millipore kinase panel; type: biochemical; details: 1 μM, ATP at Km
# ETA (h) = molecular target: T20, ETA (h) (Homo sapiens, UniProt P25101); assay: CEREP binding panel; details: agonist radioligand, read-out: % Inhibition of Control Specific Binding
# T20 construct: purchased Millipore KinaseProfiler (kinases); Cerep (receptors and ion channels)
# MRCKBETA = molecular target: T21, MRCKBETA (Homo sapiens, UniProt Q9Y5S2); assay: Millipore kinase panel; type: biochemical; details: read-out: % Control
# T21 construct: purchased Millipore KinaseProfiler (kinases); Cerep (receptors and ion channels)
# Na+ channel (site 2) = assay: CEREP binding panel; details: 10 μM, antagonist radioligand
# SRPK1 = molecular target: T22, SRPK1 (Homo sapiens, UniProt Q96SB4); assay: Millipore kinase panel; type: biochemical; details: read-out: % Control
# T22 construct: purchased Millipore KinaseProfiler (kinases); Cerep (receptors and ion channels)
# MC4 (h) = molecular target: T23, MC4 (h) (Homo sapiens, UniProt P32245); assay: CEREP binding panel; details: agonist radioligand, read-out: % Inhibition of Control Specific Binding
# T23 construct: purchased Millipore KinaseProfiler (kinases); Cerep (receptors and ion channels)
# ZIPK = molecular target: T24, ZIPK (Homo sapiens, UniProt O43293); assay: Millipore kinase panel; type: biochemical; details: read-out: % Control
# T24 construct: purchased Millipore KinaseProfiler (kinases); Cerep (receptors and ion channels)
# CLK3 = molecular target: T25, CLK3 (Homo sapiens, UniProt P49761); assay: Millipore kinase panel; type: biochemical; details: read-out: % Control
# T25 construct: purchased Millipore KinaseProfiler (kinases); Cerep (receptors and ion channels)
# MAPKAP-K3 = molecular target: T26, MAPKAP-K3 (Homo sapiens, UniProt Q16644); assay: Millipore kinase panel; type: biochemical; details: read-out: % Control
# T26 construct: purchased Millipore KinaseProfiler (kinases); Cerep (receptors and ion channels)
# NK3 (h) = molecular target: T27, NK3 (h) (Homo sapiens, UniProt P29371); assay: CEREP binding panel; details: antagonist radioligand, read-out: % Inhibition of Control Specific Binding
# T27 construct: purchased Millipore KinaseProfiler (kinases); Cerep (receptors and ion channels)
# PKCALPHA = molecular target: T28, PKCALPHA (Homo sapiens, UniProt P17252); assay: Millipore kinase panel; type: biochemical; details: read-out: % Control
# T28 construct: purchased Millipore KinaseProfiler (kinases); Cerep (receptors and ion channels)
# EPHB3 = molecular target: T29, EPHB3 (Homo sapiens, UniProt P54753); assay: Millipore kinase panel; type: biochemical; details: read-out: % Control
# T29 construct: purchased Millipore KinaseProfiler (kinases); Cerep (receptors and ion channels)
# PRK2 = molecular target: T30, PRK2 (Homo sapiens, UniProt Q16513); assay: Millipore kinase panel; type: biochemical; details: read-out: % Control
# T30 construct: purchased Millipore KinaseProfiler (kinases); Cerep (receptors and ion channels)
# PASK = molecular target: T31, PASK (Homo sapiens, UniProt Q96RG2); assay: Millipore kinase panel; type: biochemical; details: read-out: % Control
# T31 construct: purchased Millipore KinaseProfiler (kinases); Cerep (receptors and ion channels)
# RET = molecular target: T32, RET (Homo sapiens, UniProt P07949); assay: Millipore kinase panel; type: biochemical; details: read-out: % Control
# T32 construct: purchased Millipore KinaseProfiler (kinases); Cerep (receptors and ion channels)
# NEK3 = molecular target: T33, NEK3 (Homo sapiens, UniProt P51956); assay: Millipore kinase panel; type: biochemical; details: read-out: % Control
# T33 construct: purchased Millipore KinaseProfiler (kinases); Cerep (receptors and ion channels)
# LIMK1 = molecular target: T34, LIMK1 (Homo sapiens, UniProt P53667); assay: Millipore kinase panel; type: biochemical; details: read-out: % Control
# T34 construct: purchased Millipore KinaseProfiler (kinases); Cerep (receptors and ion channels)
# DAPK1 = molecular target: T35, DAPK1 (Homo sapiens, UniProt P53355); assay: Millipore kinase panel; type: biochemical; details: read-out: % Control
# T35 construct: purchased Millipore KinaseProfiler (kinases); Cerep (receptors and ion channels)
# ARK5 = molecular target: T36, ARK5 (Homo sapiens, UniProt O60285); assay: Millipore kinase panel; type: biochemical; details: read-out: % Control
# T36 construct: purchased Millipore KinaseProfiler (kinases); Cerep (receptors and ion channels)
# DCAMKL2 = molecular target: T37, DCAMKL2 (Homo sapiens, UniProt Q8N568); assay: Millipore kinase panel; type: biochemical; details: read-out: % Control
# T37 construct: purchased Millipore KinaseProfiler (kinases); Cerep (receptors and ion channels)
# MLCK = molecular target: T38, MLCK (Homo sapiens, UniProt Q9H1R3); assay: Millipore kinase panel; type: biochemical; details: read-out: % Control
# T38 construct: purchased Millipore KinaseProfiler (kinases); Cerep (receptors and ion channels)
# μ (MOP) (h) = molecular target: T39, μ (MOP) (h) (Homo sapiens, UniProt P35372); assay: CEREP binding panel; details: 10 μM, agonist radioligand
# T39 construct: purchased Millipore KinaseProfiler (kinases); Cerep (receptors and ion channels)
# 5-HT1B = molecular target: T40, 5-HT1B (Rattus norvegicus, UniProt P28564); assay: CEREP binding panel; details: antagonist radioligand, read-out: % Inhibition of Control Specific Binding
# T40 construct: purchased Millipore KinaseProfiler (kinases); Cerep (receptors and ion channels)
# BRSK2 = molecular target: T41, BRSK2 (Homo sapiens, UniProt Q8IWQ3); assay: Millipore kinase panel; type: biochemical; details: read-out: % Control
# T41 construct: purchased Millipore KinaseProfiler (kinases); Cerep (receptors and ion channels)
# T30 sequence (Q16513 whole entry): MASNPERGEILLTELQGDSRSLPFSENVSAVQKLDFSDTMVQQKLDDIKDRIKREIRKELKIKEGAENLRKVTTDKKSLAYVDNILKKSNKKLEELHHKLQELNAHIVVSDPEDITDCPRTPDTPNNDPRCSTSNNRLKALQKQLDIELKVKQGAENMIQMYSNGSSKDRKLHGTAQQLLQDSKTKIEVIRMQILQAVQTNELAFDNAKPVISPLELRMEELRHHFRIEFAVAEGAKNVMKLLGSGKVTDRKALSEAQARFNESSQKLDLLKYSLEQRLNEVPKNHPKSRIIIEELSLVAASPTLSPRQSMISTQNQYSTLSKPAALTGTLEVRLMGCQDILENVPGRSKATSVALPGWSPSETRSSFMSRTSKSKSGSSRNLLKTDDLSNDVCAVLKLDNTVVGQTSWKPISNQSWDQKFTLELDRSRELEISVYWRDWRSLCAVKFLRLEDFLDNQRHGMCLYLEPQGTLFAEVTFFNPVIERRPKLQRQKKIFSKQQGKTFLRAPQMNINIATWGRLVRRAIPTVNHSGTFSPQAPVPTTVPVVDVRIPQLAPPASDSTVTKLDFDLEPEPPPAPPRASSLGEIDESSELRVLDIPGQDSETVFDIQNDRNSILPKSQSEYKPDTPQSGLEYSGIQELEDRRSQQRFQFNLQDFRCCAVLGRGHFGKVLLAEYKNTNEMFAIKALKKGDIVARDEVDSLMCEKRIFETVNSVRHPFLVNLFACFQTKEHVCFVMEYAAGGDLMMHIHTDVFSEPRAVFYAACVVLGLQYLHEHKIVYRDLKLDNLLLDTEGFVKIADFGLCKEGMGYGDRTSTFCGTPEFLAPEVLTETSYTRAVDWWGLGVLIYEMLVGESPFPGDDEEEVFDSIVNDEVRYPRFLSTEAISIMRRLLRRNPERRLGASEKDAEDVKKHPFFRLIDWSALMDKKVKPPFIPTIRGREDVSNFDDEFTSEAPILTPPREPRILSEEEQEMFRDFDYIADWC
# T11 sequence (P20309 whole entry): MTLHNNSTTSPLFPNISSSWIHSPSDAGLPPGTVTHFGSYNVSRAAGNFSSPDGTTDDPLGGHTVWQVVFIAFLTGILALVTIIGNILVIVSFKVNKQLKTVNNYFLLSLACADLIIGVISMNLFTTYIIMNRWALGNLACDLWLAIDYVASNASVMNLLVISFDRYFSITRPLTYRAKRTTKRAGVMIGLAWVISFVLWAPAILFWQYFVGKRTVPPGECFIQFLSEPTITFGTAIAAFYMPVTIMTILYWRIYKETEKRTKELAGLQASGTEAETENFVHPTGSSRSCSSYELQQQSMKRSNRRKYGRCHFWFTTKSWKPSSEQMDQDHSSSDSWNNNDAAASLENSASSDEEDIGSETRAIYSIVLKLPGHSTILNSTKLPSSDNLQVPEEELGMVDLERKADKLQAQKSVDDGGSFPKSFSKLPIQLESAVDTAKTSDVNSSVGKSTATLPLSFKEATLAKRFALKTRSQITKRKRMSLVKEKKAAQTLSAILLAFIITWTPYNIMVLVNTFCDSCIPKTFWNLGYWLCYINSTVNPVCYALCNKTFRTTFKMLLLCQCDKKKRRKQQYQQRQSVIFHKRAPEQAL
# T23 sequence (P32245 whole entry): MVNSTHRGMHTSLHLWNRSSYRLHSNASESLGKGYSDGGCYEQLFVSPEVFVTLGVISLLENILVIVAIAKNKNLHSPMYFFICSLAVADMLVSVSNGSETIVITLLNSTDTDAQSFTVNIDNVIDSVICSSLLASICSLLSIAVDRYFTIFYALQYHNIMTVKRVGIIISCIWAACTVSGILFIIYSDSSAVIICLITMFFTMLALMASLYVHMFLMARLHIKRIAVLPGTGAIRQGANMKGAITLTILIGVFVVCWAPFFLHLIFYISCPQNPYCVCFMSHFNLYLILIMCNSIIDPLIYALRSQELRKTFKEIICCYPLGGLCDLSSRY
# T34 sequence (P53667 whole entry): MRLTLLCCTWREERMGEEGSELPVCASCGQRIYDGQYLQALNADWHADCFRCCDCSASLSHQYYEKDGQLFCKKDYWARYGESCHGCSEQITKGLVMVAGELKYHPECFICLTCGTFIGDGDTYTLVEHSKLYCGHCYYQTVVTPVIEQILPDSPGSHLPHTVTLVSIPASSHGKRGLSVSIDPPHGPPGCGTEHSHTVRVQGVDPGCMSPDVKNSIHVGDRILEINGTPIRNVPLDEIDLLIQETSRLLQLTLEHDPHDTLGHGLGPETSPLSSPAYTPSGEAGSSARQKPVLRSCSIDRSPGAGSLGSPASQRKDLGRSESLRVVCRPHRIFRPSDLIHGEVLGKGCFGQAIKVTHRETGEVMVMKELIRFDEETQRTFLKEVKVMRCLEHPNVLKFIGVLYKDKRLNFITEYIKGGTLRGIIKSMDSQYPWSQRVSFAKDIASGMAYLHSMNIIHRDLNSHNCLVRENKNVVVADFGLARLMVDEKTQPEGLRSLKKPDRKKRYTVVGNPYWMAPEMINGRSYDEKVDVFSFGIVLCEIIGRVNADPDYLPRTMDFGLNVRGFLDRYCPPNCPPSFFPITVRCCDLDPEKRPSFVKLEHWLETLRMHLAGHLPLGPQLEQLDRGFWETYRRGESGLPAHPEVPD
# T17 sequence (P30411 whole entry): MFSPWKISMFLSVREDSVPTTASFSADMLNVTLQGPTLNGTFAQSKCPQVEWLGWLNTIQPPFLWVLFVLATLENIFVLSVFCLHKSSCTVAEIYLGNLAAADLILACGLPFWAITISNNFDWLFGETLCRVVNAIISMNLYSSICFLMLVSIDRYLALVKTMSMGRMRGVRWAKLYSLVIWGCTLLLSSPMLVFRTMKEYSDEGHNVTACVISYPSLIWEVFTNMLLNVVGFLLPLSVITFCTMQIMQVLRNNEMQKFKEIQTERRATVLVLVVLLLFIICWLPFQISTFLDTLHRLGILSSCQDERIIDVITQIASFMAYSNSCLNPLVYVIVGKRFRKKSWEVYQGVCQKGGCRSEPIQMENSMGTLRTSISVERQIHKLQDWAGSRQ
# T32 sequence (P07949 29-1114): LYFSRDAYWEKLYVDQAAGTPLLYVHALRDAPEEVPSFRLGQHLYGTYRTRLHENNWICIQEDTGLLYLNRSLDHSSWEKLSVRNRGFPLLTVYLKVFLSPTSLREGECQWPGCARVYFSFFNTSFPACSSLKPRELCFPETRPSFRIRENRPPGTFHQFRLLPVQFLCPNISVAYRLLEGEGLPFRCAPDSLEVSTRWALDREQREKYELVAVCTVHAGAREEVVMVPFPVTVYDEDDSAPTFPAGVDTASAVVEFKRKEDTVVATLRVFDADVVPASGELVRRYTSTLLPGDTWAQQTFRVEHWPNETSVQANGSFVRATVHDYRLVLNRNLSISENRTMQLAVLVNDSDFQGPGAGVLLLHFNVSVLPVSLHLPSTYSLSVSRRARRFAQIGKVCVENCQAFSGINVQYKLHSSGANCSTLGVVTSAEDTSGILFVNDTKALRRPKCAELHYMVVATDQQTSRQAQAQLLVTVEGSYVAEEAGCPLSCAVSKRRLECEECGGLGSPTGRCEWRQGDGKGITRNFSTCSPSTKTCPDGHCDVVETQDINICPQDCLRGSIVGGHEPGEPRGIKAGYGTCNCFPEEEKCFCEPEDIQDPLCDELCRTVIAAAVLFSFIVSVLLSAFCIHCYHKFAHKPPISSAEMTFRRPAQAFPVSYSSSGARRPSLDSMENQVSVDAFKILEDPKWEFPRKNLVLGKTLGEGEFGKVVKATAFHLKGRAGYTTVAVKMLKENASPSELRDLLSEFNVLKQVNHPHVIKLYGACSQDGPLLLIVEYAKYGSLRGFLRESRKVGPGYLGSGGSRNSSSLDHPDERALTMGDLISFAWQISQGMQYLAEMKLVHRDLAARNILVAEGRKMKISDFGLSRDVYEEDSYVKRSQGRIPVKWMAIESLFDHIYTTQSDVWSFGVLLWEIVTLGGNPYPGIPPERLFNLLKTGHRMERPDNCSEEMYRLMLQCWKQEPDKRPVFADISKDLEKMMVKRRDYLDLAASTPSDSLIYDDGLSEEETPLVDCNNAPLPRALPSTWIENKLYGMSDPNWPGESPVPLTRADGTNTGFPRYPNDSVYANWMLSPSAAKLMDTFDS
# T12 sequence (O14757 whole entry): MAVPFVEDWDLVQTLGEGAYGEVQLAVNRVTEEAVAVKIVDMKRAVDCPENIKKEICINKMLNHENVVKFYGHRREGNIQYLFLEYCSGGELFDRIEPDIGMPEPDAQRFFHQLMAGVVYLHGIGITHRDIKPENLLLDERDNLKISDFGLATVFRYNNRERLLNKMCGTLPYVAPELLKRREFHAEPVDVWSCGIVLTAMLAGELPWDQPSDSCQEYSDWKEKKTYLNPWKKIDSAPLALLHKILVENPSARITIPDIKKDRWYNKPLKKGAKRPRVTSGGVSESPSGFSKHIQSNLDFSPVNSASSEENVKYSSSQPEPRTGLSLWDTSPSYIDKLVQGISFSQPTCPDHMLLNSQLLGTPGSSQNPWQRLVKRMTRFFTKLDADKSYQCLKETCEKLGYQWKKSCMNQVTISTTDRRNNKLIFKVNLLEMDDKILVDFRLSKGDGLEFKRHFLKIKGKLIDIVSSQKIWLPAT
# T24 sequence (O43293 whole entry): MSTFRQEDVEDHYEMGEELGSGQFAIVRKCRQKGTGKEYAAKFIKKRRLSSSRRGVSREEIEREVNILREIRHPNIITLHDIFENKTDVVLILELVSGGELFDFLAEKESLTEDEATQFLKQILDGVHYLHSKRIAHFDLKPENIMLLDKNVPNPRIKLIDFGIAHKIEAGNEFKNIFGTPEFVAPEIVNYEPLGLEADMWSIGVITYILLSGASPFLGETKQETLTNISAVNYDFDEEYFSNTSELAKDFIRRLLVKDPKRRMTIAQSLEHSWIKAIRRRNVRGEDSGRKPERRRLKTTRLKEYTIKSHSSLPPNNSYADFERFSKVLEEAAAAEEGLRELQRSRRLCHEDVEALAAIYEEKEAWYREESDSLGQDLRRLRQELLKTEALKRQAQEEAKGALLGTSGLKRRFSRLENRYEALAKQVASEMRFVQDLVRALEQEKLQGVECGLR
compound,measurement,setting,value
"Cn1cc(-c2ccc(-c3cncc(Cl)c3N3CCC4(CCNC4=O)CC3)cc2)cn1 [Compound 74, 8-(3-Chloro-5-(4-(1-methyl-1H-pyrazol-4-yl)phenyl)pyridin-4-yl)-2,8-diazaspiro[4.5]decan-1-one]",inhibition at 10 µM,M2 (h),38%
same,remaining activity at 1 µM,ULK3,-2%
same,remaining activity at 1 µM,SAPK4,-4%
same,remaining activity at 1 µM,FYN,1%
same,remaining activity at 1 µM,CRAF,5%
same,% Inhibition of Control Specific Binding,SKCa channel,3%
same,remaining activity at 1 µM,PAK4,9%
same,remaining activity at 1 µM,RSK1,-23%
same,remaining activity at 1 µM,MELK,32%
same,remaining activity at 1 µM,MSSK1,-2%
same,remaining activity at 1 µM,DYRK2,-9%
same,inhibition at 10 µM,M3 (h),46%
same,remaining activity at 1 µM,CHK1,-17%
same,% Inhibition of Control Specific Binding,α1 (non-selective),8%
same,remaining activity at 1 µM,EPHA2,-7%
same,remaining activity at 1 µM,JAK3,0%
same,remaining activity at 1 µM,SIK,20%
same,remaining activity at 1 µM,EPHA5,6%
same,inhibition at 10 µM,B2 (h),0%
same,remaining activity at 1 µM,CSK,0%
same,remaining activity at 1 µM,CDK9/CYCLINT1,-29%
same,% Control,BLK,0% and 6%
same,inhibition at 10 µM,ETA (h),-9%
same,remaining activity at 1 µM,MRCKBETA,-4%
same,% Inhibition of Control Specific Binding,Na+ channel (site 2),29%
same,remaining activity at 1 µM,SRPK1,-4%
same,inhibition at 10 µM,MC4 (h),4%
same,remaining activity at 1 µM,ZIPK,6%
same,remaining activity at 1 µM,CLK3,-8%
same,remaining activity at 1 µM,MAPKAP-K3,7%
same,inhibition at 10 µM,NK3 (h),4%
same,remaining activity at 1 µM,PKCALPHA,-5%
same,remaining activity at 1 µM,EPHB3,-2%
same,remaining activity at 1 µM,PRK2,0%
same,remaining activity at 1 µM,PASK,18%
same,remaining activity at 1 µM,RET,1%
same,remaining activity at 1 µM,NEK3,15%
same,remaining activity at 1 µM,LIMK1,0%
same,remaining activity at 1 µM,DAPK1,0%
same,remaining activity at 1 µM,ARK5,-2%
same,remaining activity at 1 µM,DCAMKL2,1%
same,remaining activity at 1 µM,MLCK,1%
same,% Inhibition of Control Specific Binding,μ (MOP) (h),42%
same,inhibition at 10 µM,5-HT1B,-7%
same,remaining activity at 1 µM,BRSK2,-4%
